# What was measured:
# Format in all cases: toxicity, cell-based
# Fibroblast = assay: Incucyte cell viability with human fibroblast; details: 10 µM, compound concentration 10 uM
# HEK-293T = assay: Incucyte cell viability with HEK293T; details: human, 10 µM, compound concentration 10 uM
# U2OS = assay: Incucyte cell viability with U2OS; details: human, 10 µM, compound concentration 10 uM
# Note: unitless GR value; below 1 slowed growth and below 0 cell loss.
SMILES,"Growth Rate (Fibroblast; 12 h, replicate number 1)","Growth Rate (Fibroblast; 12 h, replicate number 2)","Growth Rate (Fibroblast; 18 h, replicate number 1)","Growth Rate (Fibroblast; 18 h, replicate number 2)","Growth Rate (Fibroblast; 24 h, replicate number 1)","Growth Rate (Fibroblast; 24 h, replicate number 2)","Growth Rate (HEK-293T; 6 h, replicate number 1)","Growth Rate (HEK-293T; 12 h, replicate number 1)","Growth Rate (HEK-293T; 12 h, replicate number 2)","Growth Rate (HEK-293T; 18 h, replicate number 1)","Growth Rate (HEK-293T; 18 h, replicate number 2)","Growth Rate (HEK-293T; 24 h, replicate number 1)","Growth Rate (HEK-293T; 24 h, replicate number 2)","Growth Rate (U2OS; 6 h, replicate number 1)","Growth Rate (U2OS; 0 h, replicate number 1)","Growth Rate (U2OS; 12 h, replicate number 2)","Growth Rate (U2OS; 18 h, replicate number 2)","Growth Rate (U2OS; 24 h, replicate number 2)","Growth Rate (HEK-293T; 6 h, replicate number 2)","Growth Rate (Fibroblast; 6 h, replicate number 2)",further results
CSc1ccc(C[C@@H](C)C(=O)O)cc1Nc1nc(N2CC[C@H](N(C)C)C2)cc(C(F)F)c1C#N.O=C(O)C(F)(F)F,0.16,0.34,0.21,0.8,0.3,0.79,0.25,0.39,0.58,0.43,0.51,0.48,0.58,0.8,–,–,–,–,–,–,"Growth Rate (Fibroblast; 0 h, replicate number 1): -1; Growth Rate (Fibroblast; 6 h, replicate number 1): -0.12"
Cn1ccc(Cn2cnc(-c3ccc(F)cc3)c2-c2ccnc3[nH]ccc23)n1,–,–,–,–,–,–,–,–,0.86,–,0.98,–,0.89,0.89,0.48,0.94,0.95,0.89,–,–,"Growth Rate (Fibroblast; 0 h, replicate number 1): 0.19; Growth Rate (Fibroblast; 0 h, replicate number 2): 0.53; Growth Rate (HEK-293T; 0 h, replicate number 1): -0.47; Growth Rate (HEK-293T; 0 h, replicate number 2): 0.06; Growth Rate (U2OS; 6 h, replicate number 2): 0.97; Growth Rate (U2OS; 12 h, replicate number 1): 0.89"
CN(C(=O)c1ccccc1)c1ccc2c(c1)nc(NC(=O)c1ccc(Br)s1)n2CCC(N)=O,–,–,–,–,0.96,–,0.09,0.33,0.26,0.34,0.3,0.4,0.34,–,-1,0.72,0.71,0.68,0.04,–,"Growth Rate (Fibroblast; 0 h, replicate number 1): -0.8; Growth Rate (Fibroblast; 0 h, replicate number 2): -0.39; Growth Rate (U2OS; 6 h, replicate number 2): 0.89; Growth Rate (U2OS; 18 h, replicate number 1): 0.9"
Nc1ncnc2c1c(COc1cccc(Cl)c1)nn2C1CCOCC1,0.9,0.6,–,0.74,–,0.92,0.75,–,0.61,0.83,0.5,0.79,0.37,0.51,–,–,–,–,0.59,0.47,"Growth Rate (Fibroblast; 0 h, replicate number 2): -0.61; Growth Rate (Fibroblast; 6 h, replicate number 1): 0.82; Growth Rate (U2OS; 12 h, replicate number 1): 0.63; Growth Rate (U2OS; 18 h, replicate number 1): 0.81; Growth Rate (U2OS; 24 h, replicate number 1): 0.83"
CC(C)n1nc(-c2cnc(N)c(OC(F)(F)F)c2)cc1[C@H]1[C@@H]2CN(C3COC3)C[C@@H]21,-0.97,0.78,0.08,0.91,–,0.95,–,–,–,–,–,–,–,0.76,0.6,–,–,–,0.62,–,"Growth Rate (Fibroblast; 0 h, replicate number 1): 0.52; Growth Rate (U2OS; 12 h, replicate number 1): 0.92; Growth Rate (U2OS; 24 h, replicate number 1): 0.84"
CCOC(=O)N1CCC(c2cc(O)n3nc(C)c(-c4ccc(F)cc4)c3n2)CC1,–,0.8,0.13,0.85,–,0.92,–,0.62,–,0.78,–,0.88,–,0.54,0.61,–,–,–,0.98,-0.67,"Growth Rate (U2OS; 0 h, replicate number 2): 0.63; Growth Rate (U2OS; 6 h, replicate number 2): 0.99; Growth Rate (U2OS; 12 h, replicate number 1): 0.93; Growth Rate (U2OS; 18 h, replicate number 1): 0.98"
CCOC(=O)c1ccc(CN(Cc2ccc(-c3cccc(S(C)(=O)=O)c3)cc2)S(=O)(=O)c2c(C)cc(C)cc2C)o1,0.59,0.87,0.86,0.84,0.99,0.87,–,–,0.98,–,–,–,–,–,–,–,–,0.89,–,0.38,"Growth Rate (Fibroblast; 0 h, replicate number 1): 0.32; Growth Rate (HEK-293T; 0 h, replicate number 1): -0.26"
Cc1cc(SCc2sc(-c3ccc(C(F)(F)F)cc3)nc2C)ccc1OCC(=O)O [GW501516],0.83,0.31,–,0.73,–,0.83,0.99,–,0.95,1,0.93,0.98,0.83,–,–,0.77,0.92,0.98,0.71,0.42,"Growth Rate (Fibroblast; 0 h, replicate number 2): 0.89; Growth Rate (HEK-293T; 0 h, replicate number 2): -0.84; Growth Rate (U2OS; 0 h, replicate number 2): 0.72; Growth Rate (U2OS; 6 h, replicate number 2): 0.95"
Nc1ncnc2c1c(I)cn2[C@@H]1O[C@H](CO)[C@@H](O)[C@H]1O [IODOTUBERCIDIN],0.39,0.25,0.57,0.43,0.53,–,-0.1,-0.22,-0.29,-0.21,-0.24,-0.1,-0.16,-0.39,-0.27,-0.14,-0.04,-0.18,-0.01,0.95,"Growth Rate (Fibroblast; 0 h, replicate number 2): 0.24; Growth Rate (Fibroblast; 6 h, replicate number 1): 0.18; Growth Rate (HEK-293T; 0 h, replicate number 1): -0.62; Growth Rate (U2OS; 6 h, replicate number 2): 0.34; Growth Rate (U2OS; 12 h, replicate number 1): 0.15; Growth Rate (U2OS; 18 h, replicate number 1): -0.13; Growth Rate (U2OS; 24 h, replicate number 1): -0.26"
CC(C)(C)NC(=O)c1cncn1C1CCN(c2ccc(-c3nnc(C(F)(F)F)o3)cn2)CC1,-0.09,-0.49,-0.2,-0.39,-0.13,-0.11,0.35,0.06,-0.22,0.18,-0.09,0.15,0.08,-0.4,-0.02,0.34,0.46,0.6,-0.15,-0.99,"Growth Rate (Fibroblast; 0 h, replicate number 1): -1; Growth Rate (Fibroblast; 6 h, replicate number 1): 0.1; Growth Rate (HEK-293T; 0 h, replicate number 1): -0.46; Growth Rate (HEK-293T; 0 h, replicate number 2): -0.33; Growth Rate (U2OS; 0 h, replicate number 2): 0.52; Growth Rate (U2OS; 6 h, replicate number 2): 0; Growth Rate (U2OS; 12 h, replicate number 1): -0.09; Growth Rate (U2OS; 18 h, replicate number 1): 0.27; Growth Rate (U2OS; 24 h, replicate number 1): 0.32"
CCCCC/C=C/C=C1/C(=O)C=C[C@@H]1C/C=C\CCCC(=O)O,–,0.93,0.94,0.89,0.72,0.7,–,0.88,0.95,0.89,0.98,0.86,0.94,–,–,0.62,0.7,0.85,–,–,"Growth Rate (Fibroblast; 0 h, replicate number 2): -0.86; Growth Rate (Fibroblast; 6 h, replicate number 1): 0.99; Growth Rate (HEK-293T; 0 h, replicate number 2): -0.01; Growth Rate (U2OS; 0 h, replicate number 2): -0.2; Growth Rate (U2OS; 6 h, replicate number 2): 0.82; Growth Rate (U2OS; 18 h, replicate number 1): 0.74; Growth Rate (U2OS; 24 h, replicate number 1): 0.68"
CC[N+](CC)(CC)CCOc1ccc(/C=C/c2ccccc2)cc1.[I-] [STILONIUM IODIDE],–,0.37,0.28,0.62,–,0.58,-0.34,-0.18,-0.14,-0.14,-0.12,-0.22,-0.15,–,-0.67,1,0.93,0.84,0,-1,"Growth Rate (Fibroblast; 0 h, replicate number 1): 0.94; Growth Rate (HEK-293T; 0 h, replicate number 1): 1; Growth Rate (HEK-293T; 0 h, replicate number 2): 0.44; Growth Rate (U2OS; 0 h, replicate number 2): -0.99"
CCCCNc1ncc2c(-c3ccc(CN4CCN(C)CC4)cc3)cn([C@H]3CC[C@H](O)CC3)c2n1,0.6,0.3,-0.08,-0.25,-0.18,-0.33,-0.33,-0.54,-0.55,-0.43,-0.41,-0.3,-0.28,–,–,0.4,-0.13,-0.3,-0.21,–,"Growth Rate (Fibroblast; 0 h, replicate number 2): -0.9; Growth Rate (HEK-293T; 0 h, replicate number 2): 0.42; Growth Rate (U2OS; 0 h, replicate number 2): 0.17; Growth Rate (U2OS; 18 h, replicate number 1): 0.13; Growth Rate (U2OS; 24 h, replicate number 1): -0.14"
COCCNc1cc(NC(=O)N2CCCc3cc(CN4CCOCC4=O)c(C=O)nc32)ncc1C#N,-1,0.58,-0.07,–,0.7,0.95,0.42,–,–,–,–,–,–,0.95,-0.03,–,–,–,–,-1,"Growth Rate (Fibroblast; 6 h, replicate number 1): 0.86; Growth Rate (HEK-293T; 0 h, replicate number 2): 0.81"
